In patent publication US10610522B2, “Methods for retreating irritable bowel syndrome (IBS)” (Salix Pharmaceuticals, Inc., priority 2014, dated 2020):

What was measured:
[1] = molecular target: T1, P-glycoprotein (Homo sapiens, UniProt P08183); test: Bidirectional permeability and efflux ratio of rifaximin in Caco-2 cells with P-glycoprotein inhibitors; type: in vitro ADME; conditions: for Decrease of rifaximin ER in presence of GF120918 (0.5 μM) and verapamil (60 μM): rifaximin 5 μM
T1 construct: Caco-2 cells, a human epithelial colorectal adenocarcinoma cell line; endogenous in cells; host or cells: Caco-2
From the text: The ER is the ratio of efflux permeability (basolateral to apical, B-A) to absorptive permeability (apical to basolateral, A-B), and values >1 are indicative of greater efflux than absorption.

[2] = molecular target: cytochrome P450 2C9 (Homo sapiens, UniProt P11712); test: In vitro cytochrome P450 inhibition; type: biochemical; conditions: 2 to 200 ng/mL
[3] = tested on: non-constipation IBS; test: Study 2 (TARGET 2): rifaximin 550 mg TID 14 days vs placebo in non-C IBS, 10-week follow-up; type: in vivo, human; conditions: at least 2 weeks during PEP
[4] = tested on: CYP3A4; test: CYP3A4 induction study
[5] = tested on: rabbit fetuses; test: Developmental toxicity in pregnant rabbits; type: in vivo
[6] = tested on: rat fetuses; test: Developmental toxicity in pregnant rats; type: in vivo

T1 sequence (P08183 whole entry): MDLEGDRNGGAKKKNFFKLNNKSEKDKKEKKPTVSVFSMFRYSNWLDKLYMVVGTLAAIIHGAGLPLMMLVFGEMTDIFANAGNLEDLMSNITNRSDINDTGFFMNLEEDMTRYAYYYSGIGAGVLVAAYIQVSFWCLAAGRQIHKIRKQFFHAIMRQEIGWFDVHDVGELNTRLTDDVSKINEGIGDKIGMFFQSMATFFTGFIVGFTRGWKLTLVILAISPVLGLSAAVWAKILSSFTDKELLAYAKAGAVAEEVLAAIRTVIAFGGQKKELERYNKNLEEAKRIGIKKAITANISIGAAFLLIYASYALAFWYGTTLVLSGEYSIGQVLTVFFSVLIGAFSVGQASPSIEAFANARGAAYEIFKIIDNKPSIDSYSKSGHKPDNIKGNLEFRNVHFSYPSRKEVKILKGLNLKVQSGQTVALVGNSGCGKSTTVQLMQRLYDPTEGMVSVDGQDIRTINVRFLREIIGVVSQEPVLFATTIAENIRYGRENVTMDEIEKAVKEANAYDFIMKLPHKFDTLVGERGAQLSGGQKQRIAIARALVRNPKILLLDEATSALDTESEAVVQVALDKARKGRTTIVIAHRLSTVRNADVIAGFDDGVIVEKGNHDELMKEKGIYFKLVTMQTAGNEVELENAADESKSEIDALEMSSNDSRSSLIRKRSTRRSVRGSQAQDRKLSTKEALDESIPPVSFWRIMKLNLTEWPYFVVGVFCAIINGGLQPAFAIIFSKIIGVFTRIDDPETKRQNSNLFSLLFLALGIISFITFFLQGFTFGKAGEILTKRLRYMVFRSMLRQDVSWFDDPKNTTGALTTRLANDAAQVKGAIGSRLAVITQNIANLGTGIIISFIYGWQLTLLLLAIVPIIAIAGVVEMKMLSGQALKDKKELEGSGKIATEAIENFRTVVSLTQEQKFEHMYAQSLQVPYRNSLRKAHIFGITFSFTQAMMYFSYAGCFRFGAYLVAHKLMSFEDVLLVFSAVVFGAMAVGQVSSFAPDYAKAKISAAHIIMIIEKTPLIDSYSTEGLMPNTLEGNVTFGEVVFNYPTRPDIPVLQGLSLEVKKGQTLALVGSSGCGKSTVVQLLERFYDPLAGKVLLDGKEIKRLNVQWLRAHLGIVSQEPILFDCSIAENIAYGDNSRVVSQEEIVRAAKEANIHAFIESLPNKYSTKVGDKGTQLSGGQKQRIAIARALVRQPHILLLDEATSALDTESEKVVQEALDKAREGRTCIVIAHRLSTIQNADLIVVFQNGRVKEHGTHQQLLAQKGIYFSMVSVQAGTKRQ
cytochrome P450 2C9, sequence (P11712 whole entry): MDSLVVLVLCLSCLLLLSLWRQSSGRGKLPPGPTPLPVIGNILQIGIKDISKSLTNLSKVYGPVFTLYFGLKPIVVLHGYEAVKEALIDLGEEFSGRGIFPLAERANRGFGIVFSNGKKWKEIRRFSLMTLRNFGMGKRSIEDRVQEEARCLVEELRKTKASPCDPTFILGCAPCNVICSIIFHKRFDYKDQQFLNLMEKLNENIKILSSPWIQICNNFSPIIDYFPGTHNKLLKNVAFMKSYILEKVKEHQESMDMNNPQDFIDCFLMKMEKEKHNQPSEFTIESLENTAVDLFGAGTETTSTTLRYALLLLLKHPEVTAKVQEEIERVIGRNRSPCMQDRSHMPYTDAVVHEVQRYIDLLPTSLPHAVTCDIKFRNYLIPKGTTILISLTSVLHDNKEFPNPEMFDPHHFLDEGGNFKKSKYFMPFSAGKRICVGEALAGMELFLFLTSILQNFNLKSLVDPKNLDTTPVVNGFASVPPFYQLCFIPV

Structure (SMILES): CO[C@H]1/C=C/O[C@@]2(C)Oc3c(C)c(O)c4c(O)c(c5c(nc6cc(C)ccn65)c4c3C2=O)NC(=O)/C(C)=C\C=C\[C@H](C)[C@H](O)[C@@H](C)[C@@H](O)[C@@H](C)[C@H](OC(C)=O)[C@@H]1C [Rifaximin, (2S,16Z,18E,20S,21S,22R,23R,24R,25S,26S,27S,28E)-5,6,21,23,25 Pentahydroxy-27-methoxy-2,4,11,16,20,22,24,26-octamethyl-2,7-(epoxypentadeca-(1,11,13)trienimino) benzofuro (4,5-e) pyrido(1,2-a) benzimidazole-1,15(2H)-dione,25-acetate]
- Maximum inhibition of rifaximin efflux permeability due to P-glycoprotein inhibition by verapamil ([1]; Caco-2 cells): 12 fold
- P-glycoprotein substrate status ([1]; Caco-2 cells and membrane vesicles): substrate for P-glycoprotein
- Papp A→B ([1]; human, Caco-2 monolayers, 0.5, 5, and 50 μM, read-out: Net permeability in the absorptive direction): ~1 ×10⁻⁶ cm/s
- Decrease of rifaximin ER in presence of GF120918 (0.5 μM) and verapamil (60 μM) ([1]; Round 1): 8- to 12 fold
- Decrease of rifaximin ER in presence of GF120918 (0.5 μM) and verapamil (60 μM) ([1]; Round 2): 3- to 6 fold
- Inhibition of cytochrome P450 2C9 [2]: does not inhibit
- Responders: abdominal pain reduction of 1 point in weekly median [3]: 62%
- Responders: abdominal pain reduction of 2 point in mean [3]: 25%
- Responders: overall reduction of median weekly abdominal pain by >= 75% [3]: 20%
- CYP3A4 induction [4]: induces CYP3A4
- Additional fetal malformations ([5]; fetal rabbits): cleft palate, lumbar scoliosis, brachygnathia, interventricular septal defect, and large atrium
- Fetal malformations ([5]; pregnant rabbits, dose levels that caused reduced body weight gain): eye malformations
- Fetal malformations ([6]; pregnant rats, dose levels that caused reduced body weight gain): eye malformations
- Post-natal developmental effects in rat pups ([6]; pregnant/lactating rats dosed from gestation to Day 20 post-partum, highest dose): not observed
